{"source": "patent US20120197004A1", "about": "“NOVEL ANTI-MICROBIAL PEPTIDOMIMETIC COMPOUNDS AND METHODS TO CALCULATE ANTI-MICROBIAL ACTIVITY” (priority 2006, published 2012)", "test_system": "Mycobacterium ranae (ATCC 110)", "settings": "in vitro", "note": "Where a SMILES comes first, the peptide text is derived from it. [ ]: non-standard residue; d: D form. Oic = O=C(O)[C@@H]1C[C@@H]2CCCC[C@@H]2N1; Tic = O=C(O)[C@@H]1Cc2ccccc2CN1; GABA = NCCCC(=O)O"}
{"compound": "CC(=O)NCCCC(=O)N[C@@H](Cc1ccccc1)C(=O)N1Cc2ccccc2C[C@H]1C(=O)N1[C@H](C(=O)NCCCC(=O)N[C@@H](CCCCN)C(=O)N2Cc3ccccc3C[C@H]2C(=O)N2[C@H](C(=O)NCCCC(=O)N[C@@H](Cc3ccccc3)C(=O)N3Cc4ccccc4C[C@H]3C(=O)N3[C@H](C(=O)NCCCC(=O)N[C@@H](CCCCN)C(=O)N4Cc5ccccc5C[C@H]4C(=O)N[C@@H](CCCCN)C(=O)N[C@@H](CCCCN)C(=O)N[C@@H](CCCCN)C(=O)N[C@@H](CCCCN)C(=O)N[C@@H](CCCCN)C(N)=O)C[C@@H]4CCCC[C@@H]43)C[C@@H]3CCCC[C@@H]32)C[C@@H]2CCCC[C@@H]21", "note": "[FKAB-1Gd3, Ac-Gaba-F-Tic-Oic-Gaba-K-Tic-Oic-Gaba-F-Tic-Oic-Gaba-K-Tic-KKKKK-CONH2] (Ac-[GABA]F[Tic][Oic][GABA]K[Tic][Oic][GABA]F[Tic][Oic][GABA]K[Tic]KKKKK-NH2)", "values": [{"measurement": "selectivity for Mycobacterium ranae over Staphylococcus aureus ME/GM/TC resistant", "result": 10, "unit": "fold"}]}
